# Where “and” joins values, the source holds several entries; their conditions need not be identical. Identical values can stand only once. Entries after “also recorded” stand apart in the source; their conditions may differ.
# Key:
# PI126944 tomatoes = test: Shoot regeneration of recalcitrant wild tomato PI126944; format: cell-based, S. peruvianum; details: PI126944, 1 nM REF1 vs REF1 absent
# Experimental: (a) photos of PI126944 grown in the presence and absence of 1 nM REF1. (b) relative regeneration frequency of PI126944 grown in the presence and absence of 1 nM REF1. (c) number of hypocotyl of PI126944 grown in the presence and absence of 1 nM REF1.
# (a) Photos of P126944 tomatoes (WT, PRR transformed, RER transformed, and PRR+RER transformed, grown in presence or absence of 1 nM REF1 for 19 days. (b) relative regeneration frequency of P126944 tomatoes (WT, PRR transformed, RER transformed, and PRR+RER transformed, grown in presence or absence of 1 nM REF1 for 19 days.
# The effect of exogenously applied REF1 in a shoot inducing growth medium was investigated in PI126944 tomatoes by growing PI126944 tomatoes in the presence and absence of 1 nM REF1.
# PI126944 tomatoes were transformed with the PRR+RER-OE construct as well as an equivalent construct only containing PRR and another construct only containing RER. Plants expressing these constructs along with a wild type control were grown in the presence or absence of REF1 for 19 days.
# LA1777 tomatoes = test: Shoot regeneration of recalcitrant wild tomato LA1777; format: cell-based, S. habrochaites; details: LA1777, 1 nM REF1 vs REF1 absent
# Experimental: (a) photos of LA1777 grown in the presence and absence of 1 nM REF1. (b) relative regeneration frequency of LA1777 grown in the presence and absence of 1 nM REF1. (c) number of hypocotyl of LA1777 grown in the presence and absence of 1 nM REF1.
# (a) photos of control LA1777 tomatoes, PRR expressing LA1777 tomatoes, RER expressing LA1777 tomatoes, and PRR and RER expressing LA1777 tomatoes exposed to 1 nM REF1 for 25 days, or absence of REF1 (mock). (b) relative regeneration frequency of control LA1777 tomatoes, PRR expressing LA1777 tomatoes, RER expressing LA1777 tomatoes, and PRR and RER expressing LA1777 tomatoes exposed to 1 nM REF1 for 25 days, or absence of REF1 (mock).
# The effect of exogenously applied REF1 in a shoot inducing growth medium was investigated in LA1777 tomatoes by growing LA1777 tomatoes in the presence and absence of 1 nM REF1. […] Likewise, FIG. 20B shoes that relative regeneration frequency of LA1777 was 6-fold higher when grown in the presence of REF1 compared to when REF1 was absent, similarly, the number of hypocotyl was also higher in the presence of REF1.
sequence,measurement,setting,value
"ATDRRGRPPSRPKVGSGPPPQNN (listed as Solanum lycopersicum) [REF1, 23 amino acid tomato peptide cleaved from precursor PROSIPEP]",number of hypocotyl,PI126944 tomatoes,higher
same,"relative regeneration frequency, increase",PI126944 tomatoes,5.5 fold
same,shoot regeneration,PI126944 tomatoes,greater shoot regeneration; also recorded: promotes shoot regeneration
same,number of hypocotyl,LA1777 tomatoes,higher
same,"relative regeneration frequency, increase",LA1777 tomatoes,~ 6 fold and 6 fold
same,shoot regeneration,LA1777 tomatoes,greater shoot regeneration; also recorded: promotes shoot regeneration
